Results published in ChEMBL document CHEMBL6109109, “Fatty acid binding protein 5 inhibitors as novel anticancer agents against metastatic castration-resistant prostate cancer” (Bioorg Med Chem, 2025).

Tests used:
[1] = Synergistic anticancer activity against mouse RCaP cells assessed as cell growth inhibition at 10 uM measured after 72 hrs in presence of 10 uM of topotecan by MTT assay relative to control; assay type: functional; settings: read-out: GI
[2] = system: PC-3; test: Synergistic anticancer activity against human PC-3 cells assessed as cell growth inhibition at 10 uM measured after 72 hrs in presence of 0.1 uM of topotecan by MTT assay relative to control; assay type: functional; settings: read-out: GI
[3] = system: PC-3; test: Cytotoxicity against human PC-3 cells assessed as cell growth inhibition at 20 uM measured after 72 hrs by MTT assay relative to control; assay type: functional; settings: read-out: GI
[4] = system: PC-3; test: Synergistic anticancer activity against human PC-3 cells assessed as cell growth inhibition at 10 uM measured after 72 hrs in presence of 0.001 uM of topotecan by MTT assay relative to control; assay type: functional; settings: read-out: GI
[5] = system: PC-3; test: Synergistic anticancer activity against human PC-3 cells assessed as cell growth inhibition at 20 uM measured after 72 hrs in presence of 0.0001 uM of topotecan by MTT assay relative to control; assay type: functional; settings: read-out: GI
[6] = Cytotoxicity against mouse RCaP cells assessed as cell growth inhibition at 20 uM measured after 72 hrs by MTT assay relative to control; assay type: functional; settings: read-out: GI
[7] = system: PC-3; test: Synergistic anticancer activity against human PC-3 cells assessed as cell growth inhibition at 10 uM measured after 72 hrs in presence of 10 uM of topotecan by MTT assay relative to control; assay type: functional; settings: read-out: GI
[8] = Binding affinity to FABP5 (unknown origin); design: species or system Homo sapiens
[9] = system: PC-3; test: Synergistic anticancer activity against human PC-3 cells assessed as cell growth inhibition at 20 uM measured after 72 hrs in presence of 0.01 uM of topotecan by MTT assay relative to control; assay type: functional; settings: read-out: GI
[10] = system: PC-3; test: Synergistic anticancer activity against human PC-3 cells assessed as cell growth inhibition at 10 uM measured after 72 hrs in presence of 0.0001 uM of topotecan by MTT assay relative to control; assay type: functional; settings: read-out: GI
[11] = system: PC-3; test: Synergistic anticancer activity against human PC-3 cells assessed as cell growth inhibition at 20 uM measured after 72 hrs in presence of 1 uM of topotecan by MTT assay relative to control; assay type: functional; settings: read-out: GI
[12] = system: PC-3; test: Synergistic anticancer activity against human PC-3 cells assessed as cell growth inhibition at 5 uM measured after 72 hrs in presence of 0.00001 uM of topotecan by MTT assay relative to control; assay type: functional; settings: read-out: GI
[13] = Synergistic anticancer activity against mouse RCaP cells assessed as cell growth inhibition at 20 uM measured after 72 hrs in presence of 0.00001 uM of topotecan by MTT assay relative to control; assay type: functional; settings: read-out: GI
[14] = system: PC-3; test: Synergistic anticancer activity against human PC-3 cells assessed as cell growth inhibition at 5 uM measured after 72 hrs in presence of 0.0001 uM of topotecan by MTT assay relative to control; assay type: functional; settings: read-out: GI
[15] = Cytotoxicity against mouse RCap cells assessed as reduction in cell viability measured after 72 hrs by MTT assay; assay type: functional, cell-based
[16] = Synergistic anticancer activity against mouse RCaP cells assessed as cell growth inhibition at […] measured after 72 hrs in presence of 0.01 uM of topotecan by MTT assay relative to control; assay type: functional; settings: dose 2.5 µM, read-out: GI
[17] = Synergistic anticancer activity against mouse RCaP cells assessed as cell growth inhibition at 5 uM measured after 72 hrs in presence of 10 uM of topotecan by MTT assay relative to control; assay type: functional; settings: read-out: GI
[18] = system: PC-3; test: Synergistic anticancer activity against human PC-3 cells assessed as cell growth inhibition at 20 uM measured after 72 hrs in presence of 0.1 uM of topotecan by MTT assay relative to control; assay type: functional; settings: read-out: GI
[19] = system: PC-3; test: Synergistic anticancer activity against human PC-3 cells assessed as cell growth inhibition at 10 uM measured after 72 hrs in presence of 1 uM of topotecan by MTT assay relative to control; assay type: functional; settings: read-out: GI
[20] = Synergistic anticancer activity against mouse RCaP cells assessed as cell growth inhibition at 20 uM measured after 72 hrs in presence of 0.01 uM of topotecan by MTT assay relative to control; assay type: functional; settings: read-out: GI
[21] = system: PC-3; test: Synergistic anticancer activity against human PC-3 cells assessed as cell growth inhibition at 5 uM measured after 72 hrs in presence of 0.001 uM of topotecan by MTT assay relative to control; assay type: functional; settings: read-out: GI
[22] = system: PC-3; test: Synergistic anticancer activity against human PC-3 cells assessed as cell growth inhibition at 20 uM measured after 72 hrs in presence of 0.00001 uM of topotecan by MTT assay relative to control; assay type: functional; settings: read-out: GI
[23] = system: PC-3; test: Cytotoxicity against human PC-3 cells assessed as cell growth inhibition at 10 uM measured after 72 hrs by MTT assay relative to control; assay type: functional; settings: read-out: GI
[24] = Synergistic anticancer activity against mouse RCaP cells assessed as cell growth inhibition at 5 uM measured after 72 hrs in presence of 0.0001 uM of topotecan by MTT assay relative to control; assay type: functional; settings: read-out: GI
[25] = Synergistic anticancer activity against mouse RCaP cells assessed as cell growth inhibition at […] measured after 72 hrs in presence of 0.00001 uM of topotecan by MTT assay relative to control; assay type: functional; settings: dose 2.5 µM, read-out: GI
[26] = system: PC-3; test: Synergistic anticancer activity against human PC-3 cells assessed as cell growth inhibition at 0.625 uM measured after 72 hrs in presence of 0.1 uM of topotecan by MTT assay relative to control; assay type: functional; settings: read-out: GI
[27] = Synergistic anticancer activity against mouse RCaP cells assessed as cell growth inhibition at 0.625 uM measured after 72 hrs in presence of 0.001 uM of topotecan by MTT assay relative to control; assay type: functional; settings: read-out: GI
[28] = Synergistic anticancer activity against mouse RCaP cells assessed as cell growth inhibition at 0.625 uM measured after 72 hrs in presence of 1 uM of topotecan by MTT assay relative to control; assay type: functional; settings: read-out: GI
[29] = system: PC-3; test: Synergistic anticancer activity against human PC-3 cells assessed as cell growth inhibition at […] measured after 72 hrs in presence of 0.0001 uM of topotecan by MTT assay relative to control; assay type: functional; settings: dose 2.5 µM, read-out: GI
[30] = system: PC-3; test: Induction of apoptosis in human PC-3 cells assessed as viable cells at 15 uM measured after 72 hrs by Annexin V-FITC/propidium iodide staining based FACS analysis (reference value: 97.62%); assay type: functional; settings: read-out: Activity
[31] = Synergistic anticancer activity against mouse RCaP cells assessed as cell growth inhibition at 0.625 uM measured after 72 hrs in presence of 0.0001 uM of topotecan by MTT assay relative to control; assay type: functional; settings: read-out: GI
[32] = system: PC-3; test: Induction of apoptosis in human PC-3 cells assessed as necrotic cells at 15 uM measured after 72 hrs by Annexin V-FITC/propidium iodide staining based FACS analysis (reference value: 0.11%); assay type: functional
[33] = Synergistic anticancer activity against mouse RCaP cells assessed as cell growth inhibition at 1.25 uM measured after 72 hrs in presence of 0.001 uM of topotecan by MTT assay relative to control; assay type: functional; settings: read-out: GI
[34] = system: PC-3; test: Induction of apoptosis in human PC-3 cells assessed as early apoptotic cells at 15 uM measured after 72 hrs by Annexin V-FITC/propidium iodide staining based FACS analysis (reference value: 0.54%); assay type: functional
[35] = system: PC-3; test: Induction of apoptosis in human PC-3 cells assessed as late apoptotic cells at 15 uM measured after 72 hrs by Annexin V-FITC/propidium iodide staining based FACS analysis (reference value: 1.73%); assay type: functional

Row | SMILES | inhibition of growth at 10 µM [1] [%] | inhibition of growth at 10 µM [2] [%] | inhibition of growth at 20 µM [3] [%] | inhibition of growth at 10 µM [4] [%] | inhibition of growth at 20 µM [5] [%] | inhibition of growth at 20 µM [6] [%] | inhibition of growth at 10 µM [7] [%] | inhibition of growth at 20 µM [9] [%] | inhibition of growth at 10 µM [10] [%] | inhibition of growth at 20 µM [11] [%] | inhibition of growth at 5 µM [12] [%] | inhibition of growth at 20 µM [13] [%] | inhibition of growth at 5 µM [14] [%] | inhibition of growth at […] [16] [%] | inhibition of growth at 5 µM [17] [%] | inhibition of growth at 20 µM [18] [%] | inhibition of growth at 10 µM [19] [%] | inhibition of growth at 20 µM [20] [%] | inhibition of growth at 5 µM [21] [%] | inhibition of growth at 20 µM [22] [%] | further results
1 | O=C(O)[C@H]1[C@H](c2ccccc2)[C@H](C(=O)Oc2cc(-c3ccc4c(c3)OCO4)ccc2-c2ccccc2)[C@H]1c1ccccc1 | 99.9 | 82.4 | 96.1 | 81.1 | 89 | 94.7 | 90.8 | 98.2 | 78.5 | 99.3 | 28.5 | 97.6 | 30.9 | 12.2 | 99.6 | 98.5 | 92 | 97.8 | 29.1 | 98.1 | Ki [8]: 0.66 µM; IC50 [15]: 12.3 µM; inhibition of growth at 10 µM [23]: 57.5%; inhibition of growth at 5 µM [24]: 24.6%; inhibition of growth at […] [25]: 5.43%
2 | COc1ccccc1[C@H]1[C@H](C(=O)O)[C@H](c2ccccc2OC)[C@H]1C(=O)Oc1cc(-c2ccc3c(c2)OCO3)ccc1-c1ccccc1 | 97 | 81.4 | 99.2 | 72.4 | 99.5 | 99.7 | 92.2 | 98.7 | 67.7 | 99.1 | 44.3 | 100 | 44.1 | 20.6 | 99.1 | 99 | 88.7 | 100 | 43.5 | 99.7 | inhibition of growth at 0.625 µM [26]: 69.4%; inhibition of growth at 0.625 µM [27]: -4.87%; Ki [8]: 0.65 µM; inhibition of growth at 0.625 µM [28]: 97.9%; inhibition of growth at […] [29]: 25.3%; viability at 15 µM [30]: 25.8%; inhibition of growth at 0.625 µM [31]: -3.7%; IC50 [15]: 3.44 µM; Activity [32]: 1.25%; inhibition of growth at 1.25 µM [33]: 0.37%; Activity [34]: 20.86%; Activity [35]: 52.11%; inhibition of growth at 10 µM [23]: 66.4%; inhibition of growth at 5 µM [24]: 26.8%; inhibition of growth at […] [25]: -1.97%
3 | COc1ccccc1[C@H]1[C@H](C(=O)O)[C@H](c2ccccc2OC)[C@H]1C(=O)OCC1c2ccccc2-c2ccccc21 | 99.2 | 66.8 | 89.1 | 60.9 | 99.8 | 98.2 | 86.2 | 99.8 | 59.3 | 99.8 | 24.6 | 98.1 | 27.5 | 11.7 | 99.4 | 99.8 | 82.2 | 98.2 | 28.7 | 99.3 | viability at 15 µM [30]: 88.7%; Activity [32]: 0.3%; Activity [34]: 5.38%; Activity [35]: 5.63%; inhibition of growth at 10 µM [23]: 30.1%; inhibition of growth at 5 µM [24]: 17.6%; inhibition of growth at […] [25]: 0.97%
